Measurements reported in US20140371210A1, “METHODS AND COMPOSITIONS FOR RAPID TRANSBUCCAL DELIVERY OF ACTIVE AGENTS” (Jaleva Pharmaceuticals, LLC, priority 2011, published 2014).
Like-named read-outs stand apart in the source and are kept apart here.

Key:
[1] = cited from earlier work

| SMILES | cytoprotective effect of resin composition (human cells) | logD ([1]; pH 7.4) | logD ([1]; pH 5.5) |
| --- | --- | --- | --- |
| Cc1nnc2n1-c1ccc(Cl)cc1C(c1ccccc1)=NC2 [alprazolam] | cytoprotective effect has been shown |  |  |
| O=C(O)Cc1ccccc1Nc1c(Cl)cccc1Cl [diclofenac] | cytoprotective effect has been shown |  |  |
| CC[C@H]1OC(=O)[C@H](C)[C@@H](O[C@H]2C[C@@](C)(OC)[C@@H](O)[C@H](C)O2)[C@H](C)[C@@H](O[C@@H]2O[C@H](C)C[C@H](N(C)C)[C@H]2O)[C@](C)(O)C[C@@H](C)C(=O)[C@H](C)[C@@H](O)[C@]1(C)O [erythromycin] | cytoprotective effect has been shown |  |  |
| CC(C)Cc1ccc(C(C)C(=O)O)cc1 (stereo not shown) [ibuprofen] | cytoprotective effect has been shown |  |  |
| CNS(=O)(=O)CCc1ccc2[nH]cc(C3CCN(C)CC3)c2c1 [naratriptan] |  | −0.85 |  |
| CN1CCCC1c1cccnc1 (stereo not shown) [nicotine] | cytoprotective effect has been shown | −0.62 |  |
| Cc1nccn1CC1CCc2c(c3ccccc3n2C)C1=O (stereo not shown) [ondansetron] | cytoprotective effect has been shown | 1.2 |  |
| CCCc1nn(C)c2c(=O)[nH]c(-c3cc(S(=O)(=O)N4CCN(C)CC4)ccc3OCC)nc12 [sildenafil] |  | 2.26 | 1.83 |
| CCCc1nc(C)c2c(=O)[nH]c(-c3cc(S(=O)(=O)N4CCN(CC)CC4)ccc3OCC)nn12 [vardenafil] |  | 3.71 | 2.26 |
